In PMC4919555 (EBioMedicine, 2016):
≈ marks a conversion by molar mass, not a printed value. Read-outs that look alike come from different tables or passages of the source.

Legend:
GFP expressing MTB = test: Single-cell time-lapse imaging in microfluidic device; format: cell-based, M. tuberculosis
M. tuberculosis = conditions: chronic model, 25 mg/kg, 2-month treatment
M. tuberculosis H37Rv [1] = test: microbe, parasite or virus in culture; format: cell-based; conditions: Mycobacterium tuberculosis, read-out: Mtb MIC
physchem = format: physicochemical; conditions: pH 7.4
HepG2 mammalian cells = format: cell-based; conditions: human
[2] = format: in vitro ADME; conditions: mouse liver microsomes
[3] = format: in vitro ADME; conditions: human liver microsomes
M. tuberculosis H37Rv [4] = test: microbe, parasite or virus in culture; format: cell-based; conditions: Mycobacterium tuberculosis, read-out: Mtb intracell MIC
CYP 3A4 = CYP 3A4 (Homo sapiens, UniProt P08684); test: biochemical
Memb.; Nucleus; Mitoch. = format: cell-based
[5] = genetic toxicity
hERG potassium channel = hERG potassium channel (Homo sapiens, UniProt Q12809); test: cell-based
[6] = format: in vivo, C57BL/6 mice; conditions: mice
[7] = mice
M. tuberculosis H37Rv [8] = conditions: acute model
in vivo = conditions: female, C57BL/6j, mouse; for Vd / clearance / half-life: iv; for Cmax / Tmax: po
InhA [9] = target: T1, InhA (Mycobacterium tuberculosis, UniProt P9WGR1); test: biochemical
[10] = system: panel of Gram-positive and Gram-negative organisms; test: General antimicrobial activity assay; format: cell-based; conditions: read-out: Antibacterial panel (MIC)
human FAS = human FAS (Homo sapiens, UniProt P49327); test: Selectivity against human FAS; format: biochemical
M. bovis BCG = format: cell-based
InhA [11] = target: T1, InhA; conditions: steady-state competition experiments
[12] = 5 μM, propidium iodide end point

T1 sequence (P9WGR1 whole entry, looked up): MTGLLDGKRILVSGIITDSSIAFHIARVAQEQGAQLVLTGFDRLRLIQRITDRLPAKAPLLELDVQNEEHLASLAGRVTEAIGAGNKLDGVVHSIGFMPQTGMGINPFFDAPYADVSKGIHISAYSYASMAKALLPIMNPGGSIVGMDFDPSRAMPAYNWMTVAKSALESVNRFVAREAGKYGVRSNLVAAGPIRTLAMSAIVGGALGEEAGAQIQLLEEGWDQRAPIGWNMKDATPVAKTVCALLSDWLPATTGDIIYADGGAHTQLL
CYP 3A4, sequence (P08684 whole entry): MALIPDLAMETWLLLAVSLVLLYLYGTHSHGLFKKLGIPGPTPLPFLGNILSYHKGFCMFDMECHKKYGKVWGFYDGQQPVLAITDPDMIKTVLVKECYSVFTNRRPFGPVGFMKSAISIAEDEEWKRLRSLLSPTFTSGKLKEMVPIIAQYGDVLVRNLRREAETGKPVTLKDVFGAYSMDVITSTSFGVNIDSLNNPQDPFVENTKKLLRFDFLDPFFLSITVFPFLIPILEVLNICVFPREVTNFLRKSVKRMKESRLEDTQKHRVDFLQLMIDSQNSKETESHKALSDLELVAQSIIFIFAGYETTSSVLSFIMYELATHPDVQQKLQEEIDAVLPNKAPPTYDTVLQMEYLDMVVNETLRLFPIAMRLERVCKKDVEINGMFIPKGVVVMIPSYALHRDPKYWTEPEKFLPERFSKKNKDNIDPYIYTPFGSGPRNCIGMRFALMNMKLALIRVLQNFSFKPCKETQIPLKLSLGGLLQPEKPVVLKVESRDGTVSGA
hERG potassium channel, sequence (Q12809 whole entry): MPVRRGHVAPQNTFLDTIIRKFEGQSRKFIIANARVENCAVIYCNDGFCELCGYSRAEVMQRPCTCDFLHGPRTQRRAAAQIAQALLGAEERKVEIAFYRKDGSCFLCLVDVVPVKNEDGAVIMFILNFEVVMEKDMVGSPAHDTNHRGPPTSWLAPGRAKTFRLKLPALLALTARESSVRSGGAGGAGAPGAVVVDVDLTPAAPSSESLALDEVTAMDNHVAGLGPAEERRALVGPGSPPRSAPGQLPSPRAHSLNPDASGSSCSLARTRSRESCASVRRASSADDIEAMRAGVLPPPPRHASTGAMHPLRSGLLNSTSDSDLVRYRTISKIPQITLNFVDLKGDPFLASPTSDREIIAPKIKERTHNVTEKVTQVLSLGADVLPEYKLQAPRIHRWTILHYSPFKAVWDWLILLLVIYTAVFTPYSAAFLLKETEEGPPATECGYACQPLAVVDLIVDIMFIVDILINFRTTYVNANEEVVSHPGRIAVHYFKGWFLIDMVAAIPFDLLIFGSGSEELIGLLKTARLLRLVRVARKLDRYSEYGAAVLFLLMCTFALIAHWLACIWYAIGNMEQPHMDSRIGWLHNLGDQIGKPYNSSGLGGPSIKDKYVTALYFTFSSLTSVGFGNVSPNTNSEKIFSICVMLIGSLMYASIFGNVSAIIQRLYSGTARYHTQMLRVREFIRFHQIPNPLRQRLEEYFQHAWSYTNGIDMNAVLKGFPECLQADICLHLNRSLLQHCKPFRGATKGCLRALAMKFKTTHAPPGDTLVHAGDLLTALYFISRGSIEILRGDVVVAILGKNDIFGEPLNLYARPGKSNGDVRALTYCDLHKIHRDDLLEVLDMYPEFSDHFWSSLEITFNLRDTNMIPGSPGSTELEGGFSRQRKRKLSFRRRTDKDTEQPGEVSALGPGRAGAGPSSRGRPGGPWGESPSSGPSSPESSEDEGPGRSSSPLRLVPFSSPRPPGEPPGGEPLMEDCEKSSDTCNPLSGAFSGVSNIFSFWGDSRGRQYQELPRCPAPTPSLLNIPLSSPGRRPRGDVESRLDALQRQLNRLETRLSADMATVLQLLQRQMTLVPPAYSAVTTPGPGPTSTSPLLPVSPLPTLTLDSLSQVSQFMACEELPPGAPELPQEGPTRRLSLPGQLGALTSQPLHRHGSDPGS
human FAS, sequence (P49327 whole entry): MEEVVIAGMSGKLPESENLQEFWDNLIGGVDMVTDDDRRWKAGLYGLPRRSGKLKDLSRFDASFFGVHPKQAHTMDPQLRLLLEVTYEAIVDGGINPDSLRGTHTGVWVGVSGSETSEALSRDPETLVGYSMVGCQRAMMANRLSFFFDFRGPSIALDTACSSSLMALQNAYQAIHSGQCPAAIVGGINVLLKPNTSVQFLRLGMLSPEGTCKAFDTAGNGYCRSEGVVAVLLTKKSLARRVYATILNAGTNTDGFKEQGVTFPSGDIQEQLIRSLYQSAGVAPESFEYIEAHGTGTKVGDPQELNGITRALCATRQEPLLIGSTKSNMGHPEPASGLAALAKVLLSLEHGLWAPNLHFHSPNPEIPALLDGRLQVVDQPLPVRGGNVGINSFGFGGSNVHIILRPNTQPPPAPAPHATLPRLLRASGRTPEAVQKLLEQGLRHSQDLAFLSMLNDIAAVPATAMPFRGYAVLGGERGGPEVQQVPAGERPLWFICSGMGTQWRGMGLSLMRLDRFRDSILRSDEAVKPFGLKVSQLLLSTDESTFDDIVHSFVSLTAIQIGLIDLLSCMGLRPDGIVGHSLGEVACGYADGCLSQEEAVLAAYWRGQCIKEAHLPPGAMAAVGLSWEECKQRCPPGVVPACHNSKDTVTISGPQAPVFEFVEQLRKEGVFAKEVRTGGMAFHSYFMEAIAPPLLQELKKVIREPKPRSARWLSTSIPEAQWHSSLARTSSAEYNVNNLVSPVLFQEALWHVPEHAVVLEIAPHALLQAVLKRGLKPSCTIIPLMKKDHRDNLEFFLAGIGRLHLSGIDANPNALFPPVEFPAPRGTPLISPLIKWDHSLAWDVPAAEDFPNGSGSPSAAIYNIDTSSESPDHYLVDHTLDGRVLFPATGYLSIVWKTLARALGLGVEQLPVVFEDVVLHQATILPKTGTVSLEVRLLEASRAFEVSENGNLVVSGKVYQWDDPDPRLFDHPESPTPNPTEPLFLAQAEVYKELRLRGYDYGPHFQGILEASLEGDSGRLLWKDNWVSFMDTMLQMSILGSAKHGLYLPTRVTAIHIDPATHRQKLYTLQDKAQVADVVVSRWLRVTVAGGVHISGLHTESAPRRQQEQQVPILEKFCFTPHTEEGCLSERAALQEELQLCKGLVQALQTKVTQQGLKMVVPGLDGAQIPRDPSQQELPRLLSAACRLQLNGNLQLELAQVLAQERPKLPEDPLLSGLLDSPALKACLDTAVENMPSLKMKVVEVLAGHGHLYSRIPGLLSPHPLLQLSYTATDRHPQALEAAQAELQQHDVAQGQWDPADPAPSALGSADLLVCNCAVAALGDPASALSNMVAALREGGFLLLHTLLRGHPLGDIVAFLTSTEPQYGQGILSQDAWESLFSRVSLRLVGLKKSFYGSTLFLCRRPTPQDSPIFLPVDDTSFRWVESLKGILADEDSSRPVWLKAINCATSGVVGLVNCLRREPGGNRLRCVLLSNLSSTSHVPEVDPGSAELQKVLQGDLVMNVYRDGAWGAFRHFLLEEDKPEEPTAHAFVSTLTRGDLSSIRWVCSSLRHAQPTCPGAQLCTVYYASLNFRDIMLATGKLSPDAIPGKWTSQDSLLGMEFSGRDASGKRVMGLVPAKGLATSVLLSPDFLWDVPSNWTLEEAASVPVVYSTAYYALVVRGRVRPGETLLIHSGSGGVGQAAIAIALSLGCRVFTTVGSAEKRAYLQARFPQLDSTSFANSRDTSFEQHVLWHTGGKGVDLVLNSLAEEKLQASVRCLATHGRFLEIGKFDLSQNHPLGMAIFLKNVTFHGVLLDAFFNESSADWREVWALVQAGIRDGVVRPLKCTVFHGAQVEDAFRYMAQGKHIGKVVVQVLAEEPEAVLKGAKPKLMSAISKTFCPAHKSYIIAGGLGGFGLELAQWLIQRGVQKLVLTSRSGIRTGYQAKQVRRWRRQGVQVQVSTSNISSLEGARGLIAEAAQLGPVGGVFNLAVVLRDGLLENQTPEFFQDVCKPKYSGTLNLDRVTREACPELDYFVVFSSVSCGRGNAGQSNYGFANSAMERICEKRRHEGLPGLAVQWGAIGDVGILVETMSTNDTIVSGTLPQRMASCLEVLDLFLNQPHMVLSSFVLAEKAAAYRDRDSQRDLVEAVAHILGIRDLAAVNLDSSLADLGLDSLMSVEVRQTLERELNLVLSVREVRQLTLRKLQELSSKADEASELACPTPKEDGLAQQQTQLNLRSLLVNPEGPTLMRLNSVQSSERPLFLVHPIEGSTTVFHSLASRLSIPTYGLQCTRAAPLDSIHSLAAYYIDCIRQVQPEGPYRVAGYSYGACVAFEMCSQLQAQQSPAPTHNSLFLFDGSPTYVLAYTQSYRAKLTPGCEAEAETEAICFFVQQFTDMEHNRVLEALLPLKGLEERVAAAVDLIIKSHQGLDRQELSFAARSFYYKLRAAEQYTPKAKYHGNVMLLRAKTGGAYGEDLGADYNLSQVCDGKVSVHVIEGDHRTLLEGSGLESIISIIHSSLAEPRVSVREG

Compound: NNC(=O)c1ccncc1 [INH, isoniazid]
- Total fraction of cells undergoing lysis (GFP expressing MTB; INH 0.5 µg/ml, N = 41 microcolonies): 42 ± 15%
- Clearance of bacilli (Log CFU) (M. tuberculosis; P < 0.001): significant clearance of bacilli compared with the controls
- Clearance of bacilli (Log CFU) (M. tuberculosis; P < 0.001, listed as isoniazid): clear efficacy

Compound: Cc1csc([C@](C)(O)c2nnc(Nc3ccn(Cc4csc(C)n4)n3)s2)n1 [GSK693, (S)-1-(4-methylthiazol-2-yl)-1-(5-((1-((2-methylthiazol-4-yl)methyl)-1H-pyrazol-3-yl)amino)-1,3,4-thiadiazol-2-yl)ethanol]
- MIC (M. tuberculosis H37Rv [1]): 0.2 µM (≈ 0.0839 µg/mL)
- solubility (physchem): 413 µM (≈ 173 µg/mL)
- HepG2 cytotoxicity Tox 50 (HepG2 mammalian cells): > 50 µM
- In vitro Cli mouse [2]: 2.1 mL/min/g
- In vitro Cli human [3]: 0.2 mL/min/g
- MIC (M. tuberculosis H37Rv [4]): 0.2 µM (≈ 0.0839 µg/mL)
- IC50 (CYP 3A4; CYP 3A4 IC50 VG, VG substrate): 25.1 µM
- IC50 (CYP 3A4; CYP 3A4 IC50 VR, VR substrate): > 50.1 µM
- Cell Health (Memb.; Nucleus; Mitoch. ) (Memb.; Nucleus; Mitoch.): > 199.5 µM
- Ames test [5]: Negative
- IC50 (hERG potassium channel): > 50 µM
- Total fraction of cells undergoing lysis (GFP expressing MTB; 5 μM GSK693 for 10 days, N = 32 microcolonies): 53 ± 20%
- Regrowth after washout of the drug (GFP expressing MTB; 5 μM for 10 days, washout 7 days): None of the intact bacteria exhibited regrowth
- Intact cells PI-positive after exposure (GFP expressing MTB; [12]): About 22%
- Intact cells still able to exclude PI (GFP expressing MTB; [12]): 78%
- Maximal no lethal dose (MNLD) [6]: higher than 1000 mg/kg
- DNAUC ([7]; Table 3 lead): 935.8 ng·h/ml per mg/kg
- Bacterial load reduction (M. tuberculosis H37Rv [8]; 100 mg/kg oral): 4 log10 colony forming units (CFU) per lung
- Clearance of bacilli (Log CFU) (M. tuberculosis H37Rv [8]; oral 30, 100 and 300 mg/kg, P < 0.001): significant clearance of bacilli compared with the controls
- Vd (in vivo; 4 mg/kg): 2.58 L/kg
- clearance (in vivo; 4 mg/kg): 83 mL/min/kg
- half-life (in vivo; 4 mg/kg): 56.4 min
- Cmax (in vivo; 100 mg/kg): 37300 ng/mL
- Tmax (in vivo; 100 mg/kg): 25.2 min
- IC50 (InhA [9]): 0.007 µM

Compound: Cc1ccn(C(C)c2nnc(Nc3ccn(Cc4c(F)cccc4Cl)n3)s2)n1 (stereo not shown) [GSK613, N-(1-(2-chloro-6-fluorobenzyl)-1H-pyrazol-3-yl)-5-(1-(3-methyl-1H-pyrazol-1-yl)ethyl)-1,3,4-thiadiazol-2-amine]
- MIC (M. tuberculosis H37Rv [1]): ≤ 1 µM
- MIC [10]: ≥ 64 µg/mL
- solubility (physchem): 10 µM (≈ 4.18 µg/mL)
- HepG2 cytotoxicity Tox 50 (HepG2 mammalian cells): > 100 µM
- In vitro Cli mouse [2]: 11.9 mL/min/g
- In vitro Cli human [3]: 2.9 mL/min/g
- Activity against human FAS (human FAS): inactive
- Shift in MIC in strains overexpressing the target (M. bovis BCG): ≥ 4 fold
- Mode of inhibition versus NADH (InhA [11]): uncompetitive with NADH
- Mode of inhibition versus fatty acid substrate (InhA [11]): competes with the fatty acid substrate
- DNAUC (dose normalized exposure) ([7]; Table 1 hits): 5 ng·h/ml per mg/kg
- Vd (in vivo; 0.5 mg/kg): 2.5 L/kg
- clearance (in vivo; 0.5 mg/kg): 157 mL/min/kg
- half-life (in vivo; 0.5 mg/kg): 18 min
- Cmax (in vivo; 50 mg/kg): 94.3 ng/mL
- Tmax (in vivo; 50 mg/kg): 45 min
- IC50 (InhA [9]): 0.007 µM

Compound: COc1c(N2C[C@@H]3CCCN[C@@H]3C2)c(F)cc2c(=O)c(C(=O)O)cn(C3CC3)c12 [moxifloxacin, reference compound]
- Bacterial load reduction (M. tuberculosis H37Rv [8]; 30 mg/kg): 4 log10 colony forming units (CFU) per lung
